Data reported in patent US9549902B2, “Transdermal patch” (BOUTY S.P.A., priority 2005, dated 2017).

Key:
[1] = In vitro nitroglycerin permeation across human skin (SCE membranes) in Franz diffusion cells; type: in vitro ADME
Description: (§1) With the purpose of analysing the effect of sorbitan monooleate on nitroglycerin permeation kinetics, permeation of nitroglycerin from transdermal patches containing different concentrations of sorbitan monooleate was measured across mouse skin and human skin in Franz diffusion cells (produced by Hanson-Research).
(§2) The test was undertaken as described in the Italian Official Pharmacopoeia XI ed. and the European Pharmacopoeia 4th ed.
Samples of abdominal skin were obtained from the same donor by means of a surgical procedure.
Membranes consisting of the stratum corneum and epidermis (SCE membranes) were prepared by immersing the skin into distilled water at 60° C.±1° C. for one minute followed by their removal from the dermis. The membranes were dried in a dryer at about 25% ambient humidity, wrapped in aluminium sheets and maintained at a temperature of about −20° C.±1° C. until required. Dried membrane samples were rehydrated at ambient temperature by immersing in a saline solution for 16 hours. […]
The results obtained were analysed statistically using the t-test for independent samples.
The steady-state flux was then determined for each patch by linear regression of the cumulative quantity of drug permeated across the skin (μg/cm^2) as a function of time (h). […]

[2] = In vitro nitroglycerin permeation across mouse skin in Franz diffusion cells; type: in vitro ADME
Description: as §1, §2
The permeation studies were conducted using Franz diffusion cells modified with an aperture 15 mm in diameter (membrane surface area 1.766 cm^2) and 7 ml cell volume. A phosphate buffer at pH 7 maintained under constant agitation was used as receptor fluid within the cell. […]
Within an hour of removal from the animal the skin samples were placed over the aperture of the cells to form a membrane and the transdermal patches to be analysed were each placed over a membrane and fastened with clips.
At determined intervals 300 μl of receptor solution were withdrawn and replaced each time with an equivalent volume of phosphate buffer.
The quantity of nitroglycerin in each sample was determined by means of HPLC analysis, using a 50:50 methanol/water mixture as mobile phase.
The results obtained for each patch were analyzed statistically using the t-test for independent samples. […]

sorbitan monooleate
Action as absorption enhancer [1]: does not act as an absorption enhancer | Action as absorption enhancer [2]: does not act as an absorption enhancer
